Laboratory results published in ChEMBL document CHEMBL4619795, “Establishing the Structure-Activity Relationship of Daptomycin” (ACS Med Chem Lett, 2020).
Calls of active or inactive are those of the source. The rule behind the calls is not given here.

How the values were obtained:
Enterococcus faecalis [1] = experiment: Antibacterial activity against Streptococcus faecalis assessed as bacterial growth inhibition in presence of 50 ug/ml calcium ions by CLSI protocol based broth microdilution method; assay type: functional
Staphylococcus aureus [2] = experiment: Antibacterial activity against methicillin-resistant Staphylococcus aureus 88 assessed as bacterial growth inhibition in presence of 50 ug/ml calcium ions by CLSI protocol based broth microdilution method; assay type: functional
Staphylococcus aureus [3] = experiment: Antibacterial activity against methicillin-resistant Staphylococcus aureus 14 assessed as bacterial growth inhibition in presence of 50 ug/ml calcium ions by CLSI protocol based broth microdilution method; assay type: functional
Lipid bilayer [4] = experiment: Binding affinity to POPC/POPG (1:1) large unilamellar vesicles assessed as change in ellipticity […] at 50 uM in presence of phosphatidylglycerol and Ca2+ ions by circular dichroism spectroscopy
Staphylococcus aureus [5] = experiment: Antibacterial activity against methicillin-resistant Staphylococcus aureus 11 assessed as bacterial growth inhibition in presence of 50 ug/ml calcium ions by CLSI protocol based broth microdilution method; assay type: functional
Staphylococcus aureus [6] = experiment: Antibacterial activity against methicillin-resistant Staphylococcus aureus 86 assessed as bacterial growth inhibition in presence of 50 ug/ml calcium ions by CLSI protocol based broth microdilution method; assay type: functional
Enterococcus [7] = experiment: Antibacterial activity against Enterococcus 60 assessed as bacterial growth inhibition in presence of 50 ug/ml calcium ions by CLSI protocol based broth microdilution method; assay type: functional
Lipid bilayer [8] = experiment: Binding affinity to POPC large unilamellar vesicles assessed as change in ellipticity […] at 50 uM in presence of phosphatidylglycerol and Ca2+ ions by circular dichroism spectroscopy
Staphylococcus aureus [9] = experiment: Antibacterial activity against Staphylococcus aureus ATCC 29213 assessed as bacterial growth inhibition in presence of 50 ug/ml calcium ions by CLSI protocol based broth microdilution method; assay type: functional
Enterococcus faecalis [10] = experiment: Antibacterial activity against Enterococcus faecalis ATCC 29212 assessed as bacterial growth inhibition in presence of 50 ug/ml calcium ions by CLSI protocol based broth microdilution method; assay type: functional
Enterococcus [11] = experiment: Antibacterial activity against Enterococcus 6 assessed as bacterial growth inhibition in presence of 50 ug/ml calcium ions by CLSI protocol based broth microdilution method; assay type: functional

Row | SMILES | MIC (Enterococcus faecalis [1]) [µg/mL] | MIC (Staphylococcus aureus [2]) [µg/mL] | MIC (Staphylococcus aureus [3]) [µg/mL] | Activity (Lipid bilayer [4]) | MIC (Staphylococcus aureus [5]) [µg/mL] | MIC (Staphylococcus aureus [6]) [µg/mL] | MIC (Enterococcus [7]) [µg/mL] | Activity (Lipid bilayer [8]) | MIC (Staphylococcus aureus [9]) [µg/mL] | MIC (Enterococcus faecalis [10]) [µg/mL] | MIC (Enterococcus [11]) [µg/mL]
1 | CCCCCCCCCC(=O)N[C@@H](Cc1c[nH]c2ccccc12)C(=O)N[C@@H](CC(N)=O)C(=O)N[C@@H](CC(=O)O)C(=O)N[C@@H]1C(=O)NCC(=O)N[C@@H](CCCN)C(=O)N[C@@H](CC(N)=O)C(=O)N[C@H](C)C(=O)N[C@@H](CC(N)=O)C(=O)NCC(=O)N[C@H](CO)C(=O)N[C@@H]([C@@H](C)CC(=O)O)C(=O)N[C@@H](CC(=O)c2ccccc2N)C(=O)O[C@@H]1C | ≥ 32 | ≥ 32 | ≥ 32 | Active | ≥ 32 | ≥ 32 | ≥ 32 | Active | ≥ 32 | ≥ 32 | ≥ 32
2 | CCCCCCCCCC(=O)N[C@@H](Cc1c[nH]c2ccccc12)C(=O)N[C@@H](CC(N)=O)C(=O)N[C@@H](CC(=O)O)C(=O)N[C@@H]1C(=O)NCC(=O)N[C@@H](CCCN)C(=O)N[C@@H](CC(=O)O)C(=O)N[C@H](C)C(=O)N[C@@H](CC(=O)O)C(=O)NCC(=O)N[C@H](CO)C(=O)N[C@@H]([C@@H](C)CC(=O)O)C(=O)N[C@@H](C)C(=O)O[C@@H]1C | ≥ 32 | ≥ 32 | ≥ 32 | – | ≥ 32 | ≥ 32 | ≥ 32 | – | ≥ 32 | ≥ 32 | ≥ 32
3 | CCCCCCCCCC(=O)N[C@@H](Cc1c[nH]c2ccccc12)C(=O)N[C@@H](CC(N)=O)C(=O)N[C@@H](CC(=O)O)C(=O)N[C@@H]1C(=O)NCC(=O)N2CCC[C@H]2C(=O)N[C@@H](CC(=O)O)C(=O)N[C@H](C)C(=O)N[C@@H](CC(=O)O)C(=O)NCC(=O)N[C@H](CO)C(=O)N[C@@H]([C@@H](C)CC(=O)O)C(=O)N[C@@H](CC(=O)c2ccccc2N)C(=O)O[C@@H]1C | ≥ 32 | ≥ 32 | ≥ 32 | – | ≥ 32 | ≥ 32 | ≥ 32 | – | ≥ 32 | ≥ 32 | ≥ 32
4 | CCCCCCCCCC(=O)N[C@@H](Cc1c[nH]c2ccccc12)C(=O)N[C@@H](CC(N)=O)C(=O)N[C@@H](CC(=O)O)C(=O)N[C@@H]1C(=O)NCC(=O)N[C@@H](CCCNC(=N)N)C(=O)N[C@@H](CC(=O)O)C(=O)N[C@H](C)C(=O)N[C@@H](CC(=O)O)C(=O)NCC(=O)N[C@H](CO)C(=O)N[C@@H]([C@@H](C)CC(=O)O)C(=O)N[C@@H](CC(=O)c2ccccc2N)C(=O)O[C@@H]1C | 8 | 1 | 16 | – | 8 | 2 | 16 | – | 2 | ≥ 32 | 32
5 | CCCCCCCCCC(=O)N[C@@H](Cc1c[nH]c2ccccc12)C(=O)N[C@@H](CC(N)=O)C(=O)N[C@@H](CC(=O)O)C(=O)N[C@@H]1C(=O)NCC(=O)N[C@@H](CCSC)C(=O)N[C@@H](CC(=O)O)C(=O)N[C@H](C)C(=O)N[C@@H](CC(=O)O)C(=O)NCC(=O)N[C@H](CO)C(=O)N[C@@H]([C@@H](C)CC(=O)O)C(=O)N[C@@H](CC(=O)c2ccccc2N)C(=O)O[C@@H]1C | ≥ 32 | ≥ 32 | ≥ 32 | – | ≥ 32 | ≥ 32 | 32 | – | ≥ 32 | ≥ 32 | ≥ 32
6 | CCCCCCCCCC(=O)N[C@@H](C)C(=O)N[C@@H](CC(N)=O)C(=O)N[C@@H](CC(=O)O)C(=O)N[C@@H]1C(=O)NCC(=O)N[C@@H](CCCN)C(=O)N[C@@H](CC(=O)O)C(=O)N[C@H](C)C(=O)N[C@@H](CC(=O)O)C(=O)NCC(=O)N[C@H](CO)C(=O)N[C@@H]([C@@H](C)CC(=O)O)C(=O)N[C@@H](CC(=O)c2ccccc2N)C(=O)O[C@@H]1C | ≥ 64 | ≥ 32 | ≥ 32 | – | ≥ 32 | ≥ 32 | ≥ 64 | – | ≥ 32 | ≥ 64 | ≥ 64
7 | CCCCCCCCCC(=O)N[C@@H](Cc1c[nH]c2ccccc12)C(=O)N[C@@H](CC(N)=O)C(=O)N[C@@H](CC(=O)O)C(=O)N[C@@H]1C(=O)NCC(=O)NCC(=O)N[C@@H](CC(=O)O)C(=O)N[C@H](C)C(=O)N[C@@H](CC(=O)O)C(=O)NCC(=O)N[C@H](CO)C(=O)N[C@@H]([C@@H](C)CC(=O)O)C(=O)N[C@@H](CC(=O)c2ccccc2N)C(=O)O[C@@H]1C | ≥ 32 | ≥ 32 | ≥ 32 | – | ≥ 32 | ≥ 32 | ≥ 32 | – | ≥ 32 | ≥ 32 | ≥ 32
